Test results from PubChem BioAssay (NCI).
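Protocol summary: plate cells (96-well), add compound at 5 concentrations, incubate 48 h, interpolate endpoints linearly. Here, GI50 denotes the concentration required for 50% inhibition of growth. TGI marks complete inhibition of growth.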

What was measured:
Assay in all cases: NCI-60 cell line screen, 48 h
[1] = tested on: COLO 205 colon
[2] = tested on: DU-145 prostate
[3] = tested on: HOP-62 NSCLC
[4] = tested on: IGROV1 ovarian
[5] = tested on: KM12 colon
[6] = tested on: LOX IMVI melanoma
[7] = tested on: SK-MEL-5 melanoma
[8] = tested on: SNB-75 CNS
[9] = tested on: UACC-257 melanoma
[10] = tested on: UACC-62 melanoma

| Structure (SMILES) | GI50 [1] [µM] | TGI [1] [µM] | GI50 [2] [µM] | TGI [2] [µM] | GI50 [3] [µM] | TGI [3] [µM] | GI50 [4] [µM] | TGI [4] [µM] | GI50 [5] [µM] | TGI [5] [µM] | GI50 [6] [µM] | TGI [6] [µM] | GI50 [7] [µM] | TGI [7] [µM] | GI50 [8] [µM] | TGI [8] [µM] | GI50 [9] [µM] | TGI [9] [µM] | GI50 [10] [µM] | TGI [10] [µM] |
| --- | --- | --- | --- | --- | --- | --- | --- | --- | --- | --- | --- | --- | --- | --- | --- | --- | --- | --- | --- | --- |
| CC(=Nc1ccc(S(N)(=O)=O)cc1)c1c(O)[nH]c2ccccc12 | > 16 | > 25 | > 25 | > 25 | > 14.5 | > 25 | > 25 | > 25 | 0.872 | > 25 | > 25 | > 25 | > 25 | > 25 | > 25 | > 25 | > 25 | > 25 | > 25 | > 25 |
| [2H]c1nc(=Nc2cc(NC(=O)C=C)c(N(C)CCN(C)C)cc2OC)[nH]c(-c2cn(C([2H])([2H])[2H])c3ccccc23)c1[2H] | 1.62 | 3.06 | 1.51 | 11.8 | 4.25 | 20.7 | 0.122 | 2.04 | 3.15 | 11.5 | 1.65 | 3.17 | 1.64 | 3 | 10.8 | 24.8 | 2.19 | 3.88 | 1.72 | 3.28 |
| CC(C)[O-].CC(C)[O-].CN(CCN(C)Cc1cc(F)cc(F)c1[O-])Cc1cc(F)cc(F)c1[O-].[Ti+4] | 1.62 | 4.86 | 1.47 | 7.06 | 0.634 | 3.68 | 0.688 | 2.47 | 0.907 | 2.95 | 0.784 | 3.88 | 0.467 | 1.67 | 0.517 | 2.52 | 1.15 | 3.9 | 1.26 | 3.09 |
| COc1cc2nc(-c3ccc(C(F)(F)F)cc3)cc(OCCCN3CCCC3)c2cc1OC | 0.398 | 4.54 | 0.992 | > 46.6 | 1.42 | 18.5 | 0.593 | 14.5 | 1.73 | 30.1 | 0.116 | 0.322 | 0.51 | 1.28 | 0.207 | 4.49 | 1.37 | 8.51 | 1.57 | 6.6 |
| COc1ccc2[nH]c(-c3ccc(O)cc3)cc(=O)c2c1 | – | 6.25 | – | > 100 | – | > 58.8 | – | > 62.8 | – | 7.09 | – | > 90 | – | 5.43 | – | 1.7 | – | > 81.2 | – | 38.9 |
| CCCCCCCCCCCCCCCCCCOCC(COCCOCC[N+]1(CCCCCC(=O)[O-])CCCC1)Oc1ncccn1 (stereo not given) | – | 3.77 | – | 27.2 | – | 5.24 | – | 3.83 | – | 17.7 | – | 13 | – | 15.2 | – | 12.8 | – | 22.7 | – | 14.2 |
| COc1ccc(-c2cnoc2-c2cc(OC)c3c(c2)OCCO3)cc1 | 0.0231 | 0.0806 | 0.0456 | > 46.9 | 0.0319 | 56.6 | 0.0924 | > 100 | < 0.0162 | 16 | 0.0632 | 22.5 | 0.0222 | 0.592 | 0.0195 | 34.4 | 11.5 | > 100 | < 0.015 | > 100 |
| O=[N+]([O-])c1ccc(-c2cc3c(Nc4ccc(Cl)c(C(F)(F)F)c4)ncnc3s2)cc1 | 1.79 | 3.35 | 1.63 | > 100 | 3.13 | > 100 | 1.62 | > 100 | 1.42 | > 100 | 1.62 | > 100 | 1.13 | 2.58 | 1.87 | 9.02 | 2.95 | > 26.8 | 1.63 | > 100 |
| CCN(CC)c1ccc(/C=C/C2=[N+](C)c3ccccc3C2(C)C)c(C)c1 | 0.0489 | 0.127 | 0.0985 | 11.6 | 0.0983 | 1.74 | 0.117 | 11.4 | 0.0491 | 1.36 | 0.0535 | 1.28 | 0.0335 | 0.0854 | 0.0736 | 0.876 | 0.0546 | 0.226 | 0.0998 | 2.14 |
| COc1cc(C2c3cc4c(cc3[C@@H](Nc3ccc5c(c3)OCCO5)C3COC(=O)[C@H]23)OCO4)cc(OC)c1O (stereo not given in full) | – | 4.43 | – | > 100 | – | 1.31 | – | 16.6 | – | 10.9 | – | 22.4 | – | 1.75 | – | 5.59 | – | > 32.3 | – | 7.19 |
| C=C1C(=O)C23C(O)C1CC[C@H]2C12CCCC(C)(COC(C)=O)[C@H]1[C@H](O)[C@]3(O)OC2 (stereo not given in full) | – | 4.14 | – | 16.2 | – | 8.56 | – | 4.05 | – | 6.07 | – | 3.17 | – | 3.26 | – | 4.33 | – | 3.67 | – | 3.16 |
